Legend:
[1] = biological target: T1, Bromodomain-containing protein 4 [58-164] (Homo sapiens, UniProt O60885); test: Determination of the value of binding affinity constant (KO between the compound and BRD4 BD1 protein
T1 construct: 58-164
Procedure: The multifunctional microplate reader was a product of TECAN, model: SPARK 10M. Buffer: 100 mM potassium phosphate (pH 6.5), 2% ethylene glycol (Sigma) and 0.01% Trition X-100 (Sigma). The experimental water was Millipore-Q pure water.The specific experimental steps were as follows.First, the compound to be tested was dissolved in ethylene glycol to prepare into a 10 mM standard stock solution. Subsequently, the standard stock solution of the compound to be tested was diluted into a working sample solution with the buffer in an EP tube and ready for use. The concentration of the prepared working sample solution was 5 times of the highest sample concentration required on the test plate (5×test compound solution).[…] of a 5× test compound solution of a sample A was added to wells B1-B3 of a 96-well plate, and 40 μL of a 5× test compound solution of a sample B was added to wells B7-B9 of the 96-well plate, respectively. 20 uL of the buffer was added to the remaining wells, except for wells B1-B3 and B7-B9. Then, 20 uL of a solution was taken from wells B1-B3 to C1-C3, and this 2-fold dilution was repeated from C1-C3 until H4-H6; in the same way, 20 uL of a solution was taken from B7-B9 to C7-C9, this 2-fold dilution was repeated from C7-C9 until H10-H12.

[2] = biological target: T2, Bromodomain-containing protein 4 [348-457] (Human, UniProt O60885); test: Determination of the value of binding affinity constant (KO between the compound and BRD4 BD2 protein
T2 construct: 348-457
Procedure: The multifunctional microplate reader was a product of TECAN, model: SPARK 10M. Buffer: 100 mM potassium phosphate (pH 6.5), 2% ethylene glycol (Sigma) and 0.01% Trition X-100 (Sigma). The experimental water was Millipore-Q pure water.The Ki value of the compound and BRD4 BD2 protein was measured according to the FP test procedures for detecting the Ki value of the compound and BRD4 BD1 protein except that the BRD4 BD1 protein was replaced with the BRD4 BD2 protein.

SMILES | Ki [1] [nM] | Ki [2] [nM]
COC(=O)Cc1ccccc1NC1CCn2nncc2-c2ccc(-c3cnn(C)c3)cc21 (configuration not stated) [US12286435, Code LB175] | 43.5 | 18.6
Cc1nnn2c1-c1ccc(C3=CCOCC3)cc1C(Nc1cccc(Cl)c1)CC2 (configuration not stated) [US12286435, Code LD31] | 39.1 | 17.1
Cc1nnn2c1-c1ccc(C3=CCNCC3)cc1C(Nc1c(F)cccc1Cl)CC2 (configuration not stated) [US12286435, Code LC198] | 2980 | 153
CCCCN1CC=C(c2ccc3c(c2)C(Nc2cccc(Cl)c2)CCn2nnc(C)c2-3)CC1 (configuration not stated) [US12286435, Code BH108] | 451 | 24.3
COC(=O)Cc1ccc(NC2CCn3nnc(C)c3-c3ccc(-c4cnn(C)c4)cc32)cc1 (configuration not stated) [US12286435, Code LB38] | 44.8 | 9.29
Cc1nnn2c1-c1ccc(-c3cnn(C)c3)cc1C(Nc1cccc(CCO)c1)CC2 (configuration not stated) [US12286435, Code LB71] | 92.2 | 30.5
